As a reminder, the IC50 is the concentration that gives 50% inhibition.

The test system of one data set is 4T1 tumors. The data set is described as follows: Effect on 4T1 tumor growth and survival in vivo. The following applies: 4T1 tumors in Balb/c mice, 40 mg/kg by stomach tube every day; for Median survival: Kaplan-Meier; for Inhibition of tumor growth: day 8 vs day 0. The procedure:
All the procedures on the animals were carried out in accordance with the guidelines of our institution after being approved by the ethics committee. The 4T1 cells were cultured as before, and were dissociated in trypsin and washed twice in cold PBS and resuspended in PBS at 1.5 million/mL. The 4T1 tumors were obtained by subcutaneous transplantation of 0.150 million cells in 100 μL in the flank of female Balb/c mice (9 weeks, January). When the tumors reached a volume of 50-100 mm^3, the mice were fed by stomach tube with 40 mg/kg of DX101 or 40 mg/kg of […] or the control vehicle (water). The treatment was carried out every day until the end of the experiment (tumor volume >1000 mm^3). The tumor volume was determined every day using a caliper gauge and calculated from the formula: ½×(Length*Width^2). The percentage inhibition of tumor growth was determined from the following formula: 100×(1−(tumor volume, day 8/tumor volume day 0)DX107)/(1−(tumor volume, day 8/tumor volume day 0)vehicle).
The Kaplan-Meier method was used for comparing the animals' survival.

For data set [1], the system named is BT-474 human mammary tumor cells. The data set is described as follows: Cytotoxicity on BT-474 cells, MTT. Format: cell-based. The note with it: BT-474, MTT, 48 h; for Mean LogIC50 (±SEM): log of IC50 in μM; for IC50: Homo sapiens, read-out: IC50. On the procedure:
Cellular viability is measured by three different methods. For the first method, MTT labeling is carried out at 48 hours. This test is based on the use of the tetrazolium salt MTT (3-(4,5-dimethylthiazol-2-yl)-2,5-diphenyltetrazolium bromide). The tetrazolium is reduced by mitochondrial succinate dehydrogenase of active living cells, to formazan, a precipitate of a violet color. The quantity of precipitate formed is proportional to the quantity of living cells but also to the metabolic activity of each cell. […] After 48 hours, the medium is aspirated, and the cells are incubated with MTT (0.5 mg/ml in culture medium) for about 3 hours. The MTT solution is aspirated and the violet crystals are dissolved in dimethylsulfoxide (DMSO). The OD (optical density) is measured at 550 nm. The percentage viability is then determined in each well relative to the CTL and the IC50 (concentration for which there are still 50% of living cells) is determined for each molecule with Prism software using the nonlinear regression straight line (log(inhibitor) vs. Response).
(§1) The cellular viability tests were also carried out on BT-474 human mammary tumor cells (characterized as being positive triples HER2+, ER+, PR+). The BT-474 cells are in a cell culture medium identical to the preceding example and are seeded in 24-well plates at 70 000 cells per well, for determination of cellular viability using trypan blue, or in 96-well plates at 13 000 cells per well for determination of cellular viability using the MTT or LDH assay. After 96 hours (h) of culture in normal conditions, i.e. in an incubator at a temperature of 37° C. at 5% CO2, the BT-474 cells are treated for 48 h with DX101, DX107, and DX113 at 100 nM, 1 μM, 2.5 μM and 10 μM. A control is also carried out using the protocol described above but without treatment with the molecules DX101, DX107, DX113, DX117, DX119, DX121 or DX131.
(§2) After trypsin digestion for 10 minutes at 37° C., cell survival was quantified, also by a trypan blue assay with automatic counting with the Biorad TC20 equipment (TC20™ Automated Cell Counter). The trypan blue assay is based on the cell membrane integrity, which is broken in the dead cells. Trypan blue stains the dead cells blue. The Biorad TC20 cell counter counts the proportion of blue cells and non-blue cells, relative to the cell percentages. The percentage viability is then determined in each well relative to the untreated cells and the IC50 is determined as explained in the preceding example. The percentage viability of the BT-474 cells was determined using the MTT and LDH assay, carried out as described in the preceding example.

For another data set, the system named is Neuro2a cells. Briefly: Cytotoxicity on Neuro2a cells, trypan blue assay. The data set is classed as cell-based, murine. The note with it: 48 h; for percentage of live cells compared to the control group: 100 nM. On the procedure:
For this experiment, a cell culture medium was prepared. The culture medium consists of a Dulbecco's Modified Eagle Medium (DMEM) marketed by Westburg under the reference LO BE12-604F), comprising 4.5 g/L glucose with L-glutamine, to which 10% of fetal calf serum (FCS) is added. Neuro2a cells (murine neuroblastoma) were introduced into this culture medium.
24-well plates were seeded with 10000 Neuro2a cells per well. After culture for 72 hours (h) in normal conditions, i.e. in an incubator at a temperature of 37° C. at 5% CO2, the Neuro2a cells were treated for 48 h with 5α-hydroxy-6β-[2-(1H-imidazol-4-yl)-ethylamino]-cholestan-3β-yl-propionate and 5α-hydroxy-6β-[2-(1H-imidazol-4-yl)-ethylamino]-cholestan-3β-ol at 100 nM, 1 μM and 10 μM. A control (CTL) is also carried out using the protocol described above but without treatment with the aforementioned compounds. Cell survival is quantified by a trypan blue assay with automatic counting with the Biorad TC20 apparatus (TC20™ Automated Cell Counter). The trypan blue assay is based on the integrity of the cell membrane, which is broken in dead cells. The trypan blue stains the dead cells blue. The Biorad TC20 cell counter counts the proportions of blue cells and non-blue cells, relative to the cell percentages.

The subject of data set [2] is BT-474 human mammary tumor cells. The data set is described as follows: Cytotoxicity on BT-474 cells, LDH. The data set is classed as cell-based. The note with it: BT-474, LDH, 48 h; for Mean LogIC50 (±SEM): log of IC50 in μM; for IC50: Homo sapiens, read-out: IC50. The procedure: For the second method, the percentage viability is determined using assay of the activity of the enzyme LDH (lactate dehydrogenase) in the cellular supernatants using the kit non radioactive cytotoxicity assay kit (Promega). LDH is an enzyme released in the supernatant of dead cells. The higher the LDH activity in the supernatant, the greater is the cell death. In this enzyme test, the LDH released converts a violet tetrazolium salt to formazan, of red color, absorbing at 490 nm. The intensity of the red color is proportional to the number of dead cells. After 48 h of treatment, the supernatants are transferred to a new 96-well plate and are incubated for 30 minutes in the presence of the substrate mix at room temperature. The reaction is stopped using the stop buffer and the absorbance is determined at 490 nm. The percentage cell death is determined here using a control 100% of maximum activity of LDH (carried out with untreated cells incubated in the presence of the lysis solution for 45 minutes at 37° C. just before adding the substrate mix), and the cellular viability in each well is then deduced from this percentage. IC50 is then determined as explained in the preceding paragraph.
as §1, §2

Data set [3] in a line: Pharmacokinetic study of DX107 (LC/MS in plasma). The note with it: rat, oral 50 mg/kg, administered compound assayed; for Area under curve: 0-72 h. The data set is classed as in vivo. From the text: The following study is determination by LC/MS in plasma of the various molecules over 3 days (11 measurement points at the end). The graphs are always presented in comparison with DX101, which is the reference. […]

Consider `CC(C)CCC[C@@H](C)[C@H]1CC[C@H]2[C@@H]3C[C@@H](NCCc4c[nH]cn4)[C@@]4(O)C[C@@H](O)CC[C@]4(C)[C@H]3CC[C@]12C` [DX101, 5α-hydroxy-6β-[2-(1H-imidazol-4-yl)-ethylamino]-cholestan-3β-ol, reference compound], for which, in the data set with 4T1 tumors, the Median survival is recorded as 9 days and the “Inhibition of tumor growth” value stood at 58%. Moreover, in data set [1], the “Mean LogIC50 (±SEM)” value turned out to be 0.85 ± 0.02 and the IC50 stood at 7.06 µM. The “percentage of live cells compared to the control group” value in the data set with Neuro2a cells is on record as “unchanged”. Also, the “percentage cell survival relative to the control group” value in the data set on Neuro2a cells (1 μM) was determined as 85.42±4.73%. For the same compound, the “percentage cell survival relative to the control group” value in the data set on Neuro2a cells (10 μM) was 43.25%. In data set [2], the “Mean LogIC50 (±SEM)” value was 0.99 ± 0.06 and the IC50 is 9.72 µM. In addition, in data set [3], the Concentration max turned out to be 140 nM and the Area under curve came to 143297.
Take `CCC(=O)O[C@H]1CC[C@]2(C)[C@H]3CC[C@]4(C)[C@@H]([C@H](C)CCCC(C)C)CC[C@H]4[C@@H]3C[C@@H](NCCc3c[nH]cn3)[C@@]2(O)C1` [DX107, 5α-hydroxy-6β-[2-(1H-imidazol-4-yl)ethylamino]cholestan-3β-yl propionate]: in the data set on 4T1 tumors, the Median survival turned out to be 14 days and the “Inhibition of tumor growth” value is listed as 78%. In data set [1], the “Mean LogIC50 (±SEM)” value was 1.08 ± 0.04 and the IC50 worked out at 11.9 µM. In addition, the “percentage of live cells compared to the control group” value in the data set on Neuro2a cells is “unchanged”. Also, in the data set on Neuro2a cells (1 μM), the “percentage cell survival relative to the control group” value is given as 84.08±4.09%. The “percentage cell survival relative to the control group” value in the data set with Neuro2a cells (10 μM) is recorded as 30.46±5.22%. Further, in data set [2], the “Mean LogIC50 (±SEM)” value is 0.95 ± 0.08 and the IC50 is 8.92 µM. In data set [3], this compound registered a Concentration max of 142 nM and an Area under curve of 89733.
